Assay results as given in patent US20260176290A1, “INHIBITORS OF KRAS(G12D)” (Ranok Therapeutics (Hangzhou) Co. Ltd., priority 2022, published 2026).

Experiments:
KRAS (G12D)/SOS1 = molecular target: T1, KRAS (G12D)/SOS1 (Homo sapiens, UniProt P01116, G12D); test: KRAS (G12D)/SOS1 homogeneous time-resolved fluorescence (HTRF) assay; type: binding; details: absence of GTP, 4° C. for 3 hr
T1 construct: purchased Cisbio 63ADK000CB17PEH
Experimental: 3-fold serial dilutions of each test compound were prepared ranging from 20 μM to 1.02 nM. The test compound was mixed and incubated with reaction components, incubated in a sealed plate at 4° C. for 3 hr and fluorescence was measured using a PerkinElmer Envision plate reader. […]

[1] = system: AGS gastric carcinoma cells [heterozygous G12D]; test: Cancer cell line proliferation (CellTiter-Glo), AGS; type: cell-based; details: Homo sapiens, 72 hr, read-out: CTG(IC50), ABS-72 H(nM) AGS
Experimental: (§1) The following cancer cell lines were employed: AGS gastric carcinoma [heterozygous G12D] (ATCC, CRL-1739); A-427 lung carcinoma [heterozygous G12D] (ATCC, HTB-53); ASPC1 pancreatic adenocarcinoma [homozygous G12D] (ATCC, CRL-1682) and SW1990 pancreatic adenocarcinoma [homozygous G12D] (ATCC CRL-2172). Cell lines were cultured essentially according to ATCC recommendations.
(§2) AGS, A-427, ASPC1, SW1990, and GP2D cells were plated in 96-well tissue culture plates at 4,000 cells/well and incubated at 37° C./5% CO2 for 72 hr in 100 μl of media. 3-fold serial dilutions of each test compound were prepared ranging from 20 μM to 1.02 nM. Each cell line was then treated with test compounds at various concentrations with a final concentration of 0.5% DMSO/well, and then incubated at 37° C./5% CO2 for 72 hr. 100 μl of CellTiter-Glo® Reagent (Promega Corporation, Madison, WI) was added to each well and processed according manufacturer's protocol. Results were analyzed and IC50 5 values were calculated in GraphPad 7 software.

[2] = system: A-427 lung carcinoma cells [heterozygous G12D]; test: Cancer cell line proliferation (CellTiter-Glo), A-427; type: cell-based; details: Homo sapiens, A427 cells, 72 hr, read-out: CTG(IC50), ABS-72 H(nM) A427
Experimental: as §1, §2

[3] = system: ASPC1 pancreatic adenocarcinoma cells [homozygous G12D]; test: Cancer cell line proliferation (CellTiter-Glo), ASPC1; type: cell-based; details: Homo sapiens, ASPC-1 cells, 72 hr, read-out: CTG(IC50), ABS-72 H(nM) ASPC-1
Experimental: as §1, §2

[4] = system: SW1990 pancreatic adenocarcinoma cells [homozygous G12D]; test: Cancer cell line proliferation (CellTiter-Glo), SW1990; type: cell-based; details: Homo sapiens, 72 hr, read-out: CTG(IC50), ABS-72 H(nM) SW1990
Experimental: as §1, §2

T1 sequence (P01116 1-188 isoform P01116-2 G12D): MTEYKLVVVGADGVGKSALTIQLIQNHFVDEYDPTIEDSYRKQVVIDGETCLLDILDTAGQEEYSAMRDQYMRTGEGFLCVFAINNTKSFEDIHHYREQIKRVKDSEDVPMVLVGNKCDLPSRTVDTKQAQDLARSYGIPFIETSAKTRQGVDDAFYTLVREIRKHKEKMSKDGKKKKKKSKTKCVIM

Structure (SMILES)	IC50 (KRAS (G12D)/SOS1)	IC50 [1]	IC50 [2]	IC50 [3]	IC50 [4]
C#Cc1c(F)ccc2cc(O)cc(-c3ncc4c(N5CC6CCC(C5)N6)nc(OCC(=C)CN5CCC(F)CC5)nc4c3F)c12 [Example 27]	< 100 nM	< 100 nM	100 to 1000 nM	100 to 1000 nM	< 100 nM
C#Cc1c(F)ccc2cc(O)cc(-c3nc(OC(F)(F)F)c4c(N5CC6CCC(C5)N6)nc(OCC5(CN6CCC(F)CC6)CC5)nc4c3F)c12 [Example 47]	< 100 nM	< 100 nM		< 100 nM	< 100 nM
C#Cc1c(F)ccc2cc(O)cc(-c3ncc4c(N5CC6CCC(C5)N6)nc(OCC5(CN6CC7CC7(C#N)C6)CC5)nc4c3F)c12 (stereo not shown) [Example 21]	< 100 nM	< 100 nM	100 to 1000 nM	100 to 1000 nM	< 100 nM
C#Cc1cccc2cc(O)cc(-c3ncc4c(N5CC6CCC(C5)N6)nc(OCC5(CN6CCC(F)(F)CC6)CC5)nc4c3F)c12 [Example 5]	< 100 nM	< 100 nM	< 100 nM	< 100 nM	
C#Cc1c(F)ccc2cc(O)cc(-c3nc(OC)c4c(N5CC6CCC(C5)N6)nc(OCC5(CN6CC7C(C6)C7C(F)(F)F)CC5)nc4c3F)c12 (stereo not shown) [Example 41]	< 100 nM	< 100 nM	100 to 1000 nM	< 100 nM	< 100 nM
C#Cc1cccc2cc(O)cc(-c3ncc4c(N5CC6CCC(C5)N6)nc(OCC5(CN6CCC(OC)CC6)CC5)nc4c3F)c12 [Example 17]	< 100 nM	< 100 nM	100 to 1000 nM		
C#Cc1c(F)ccc2cc(O)cc(-c3ncc4c(N5CC6CCC(C5)N6)nc(OCC5(CN6CCC[C@H](C#N)C6)CC5)nc4c3F)c12 [Example 10]	< 100 nM	< 100 nM	< 100 nM	< 100 nM	
C#Cc1c(F)ccc2cc(O)cc(-c3ncc4c(N5CC6CCC(C5)N6)nc(OCC5(CN6CCC[C@@H](F)C6)CC5)nc4c3F)c12 [Example 16]	< 100 nM	< 100 nM	< 100 nM	< 100 nM	
[2H]C([2H])([2H])Oc1nc(-c2cc(O)cc3ccc(F)c(C#C)c23)c(F)c2nc(OCC3(CN4CCC(C(F)(F)F)CC4)CC3)nc(N3CC4CCC(C3)N4)c12 [Example 30]	< 100 nM	< 100 nM	< 100 nM	< 100 nM	< 100 nM
C#Cc1c(F)ccc2cc(O)cc(-c3ncc4c(N5CC6CCC(C5)N6)nc(OCC5(CN6CC=C(C(F)(F)F)CC6)CC5)nc4c3F)c12 [Example 26]	< 100 nM	< 100 nM	100 to 1000 nM	< 100 nM	< 100 nM
C#Cc1c(F)ccc2cc(O)cc(-c3ncc4c(N5CC6CCC(C5)N6)nc(OCC5(CN6CCCC(F)(F)C6)CC5)nc4c3F)c12 [Example 9]	< 100 nM	< 100 nM	100 to 1000 nM	100 to 1000 nM	
C#Cc1c(F)ccc2cc(O)cc(-c3nc(OC(F)F)c4c(N5CC6CCC(C5)N6)nc(OCC5(CN6CCC(C(F)(F)F)CC6)CC5)nc4c3F)c12 [Example 32]	< 100 nM	< 100 nM	100 to 1000 nM	100 to 1000 nM	< 100 nM
C#Cc1c(F)ccc2cc(O)cc(-c3nc(OC4CC4)c4c(N5CC6CCC(C5)N6)nc(OCC5(CN6CC7CC7C6)CC5)nc4c3F)c12 (stereo not shown) [Example 40]	< 100 nM	< 100 nM	100 to 1000 nM	< 100 nM	< 100 nM
C#Cc1c(F)ccc2cc(O)cc(-c3nc(OC)c4c(N5CC6CCC(C5)N6)nc(OCC5(CN6CC(F)C(F)C6)CC5)nc4c3F)c12 (stereo not shown) [Example 42]	< 100 nM	< 100 nM	100 to 1000 nM	< 100 nM	< 100 nM
C#Cc1c(F)ccc2cc(O)cc(-c3nc(N)c4c(N5CC6CCC(C5)N6)nc(OCC5(CN6CCC(F)CC6)CC5)nc4c3F)c12 [Example 46]	< 100 nM	< 100 nM		100 to 1000 nM	< 100 nM
C#Cc1c(F)ccc2cc(O)cc(-c3nc(OC)c4c(N5CC6CCC(C5)N6)nc(OCC5(CN6CCOCC6)CC5)nc4c3F)c12 [Example 33]	< 100 nM	< 100 nM	100 to 1000 nM	< 100 nM	< 100 nM
C#Cc1c(F)ccc2cc(O)cc(-c3nc(C)c4c(N5CC6CCC(C5)N6)nc(OCC5(CN6CCC(C(F)(F)F)CC6)CC5)nc4c3F)c12 [Example 39]	< 100 nM	< 100 nM	100 to 1000 nM	< 100 nM	< 100 nM
C#Cc1c(F)ccc2cc(O)cc(-c3ncc4c(N5CC6CCC(C5)N6)nc(OCC5(CN6CCC(C#N)CC6)CC5)nc4c3F)c12 [Example 11]	< 100 nM	< 100 nM	< 100 nM	< 100 nM	
C#Cc1c(F)ccc2cc(O)cc(-c3ncc4c(N5CC6CCC(C5)N6)nc(OCC5(CN6CCC(S(=O)(=O)N(C)C)CC6)CC5)nc4c3F)c12 [Example 25]	< 100 nM	< 100 nM	> 1000 nM	100 to 1000 nM	100 to 1000 nM
C#Cc1c(F)ccc2cc(O)cc(-c3ncc4c(N5CC6CCC(C5)N6)nc(OCC56CCCN5C[C@H](F)C6)nc4c3F)c12 (stereo partly shown) [Ref. 1, reference compound]		< 100 nM	< 100 nM	100 to 1000 nM	< 100 nM
C#Cc1c(F)ccc2cc(O)cc(-c3nc(OC)c4c(N5CC6CCC(C5)N6)nc(OCC(=C)CN5CC6CC6C5)nc4c3F)c12 (stereo not shown) [Example 48]	< 100 nM	< 100 nM		< 100 nM	< 100 nM
C#Cc1c(F)ccc2cc(O)cc(-c3nc(OC)c4c(N5CC6CCC(C5)N6)nc(OCC5(CN6CC7(CC(F)C7)C6)CC5)nc4c3F)c12 [Example 50]	< 100 nM	< 100 nM		< 100 nM	< 100 nM
C#Cc1c(F)ccc2cc(O)cc(-c3ncc4c(N5CC6CCC(C5)N6)nc(OCC5(CN6CCC(C(C)C)CC6)CC5)nc4c3F)c12 [Example 18]	< 100 nM	< 100 nM	100 to 1000 nM		
C#Cc1c(F)ccc2cc(O)cc(-c3ncc4c(N5CC6CCC(C5)N6)nc(OCC5(CN6CC[C@H](F)C6)CC5)nc4c3F)c12 [Example 15]	< 100 nM	< 100 nM	< 100 nM	< 100 nM	
C#Cc1c(F)ccc2cc(O)cc(-c3ncc4c(N5CC6CCC(C5)N6)nc(OCC5(CN6CCC([S+](C)[O-])CC6)CC5)nc4c3F)c12 (stereo not shown) [Example 22]	100 to 1000 nM	> 1000 nM	> 1000 nM	> 1000 nM	
C#Cc1c(F)ccc2cc(O)cc(-c3ncc4c(N5CC6CCC(C5)N6)nc(OCC5(CN6CCC(OC)CC6)CC5)nc4c3F)c12 [Example 12]	< 100 nM	< 100 nM	100 to 1000 nM	100 to 1000 nM	
C#Cc1c(F)ccc2cc(O)cc(-c3nc(OC(F)F)c4c(N5CC6CCC(C5)N6)nc(OCC5(CN6CCC(F)CC6)CC5)nc4c3F)c12 [Example 35]	< 100 nM	< 100 nM		< 100 nM	< 100 nM
C#Cc1cccc2cc(O)cc(-c3ncc4c(N5CC6CCC(C5)N6)nc(OCC5(CN6CC(F)C6)CC5)nc4c3F)c12 [Example 6]	< 100 nM	< 100 nM	< 100 nM	100 to 1000 nM	
